Bridge positions count the residues as written; N and C are the ends. Square brackets hold non-standard residues; d marks the D form. Ends that are not written are not given here. cellulose = not defined here; βAla = NCCC(=O)O
Key:
Assay type in all cases: binding
Set-up in all cases: key: No binding of immunoglobulin for the defined peptide variant, detection negative: 0; Binding of immunoglobulin for the defined peptide variant, detection positive: +
serum albumin = experiment: Cellulose-immobilized 13-mer peptide variants incubated with serum albumin (negative control), anti-human IgG-AP detection; details: blocking buffer without addition, 3 h room temperature
Method in brief: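 SPOT-type 13-mer peptides on cellulose with a (βA)(βA) spacer, blocked in 5% saccharose/4% BSA in T-TBS pH 8.0. Incubated 3 h at RT with human IgG-Fc (1 μg/ml) or human serum/plasma (1:10,000), or with blocking buffer alone as the albumin specificity control. Bound IgG detected with AP-anti-human IgG (1.2 μg/ml) and NBT/BCIP colorimetric development at pH 9.5.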

[1] = system: immunoglobulins in human plasma; experiment: Cellulose-immobilized 13-mer peptide variants incubated with human plasma, anti-human IgG-AP detection; details: human plasma as sample, diluted 1:10,000 in blocking buffer, 3 h room temperature
Method in brief: (§1)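 Binding is scored by NBT/BCIP precipitate from an AP-conjugated anti-human IgG probe on membrane-synthesized peptides. Targets are applied for 3 h at room temperature in 4% BSA/5% saccharose block: IgG-Fc at 1 μg/ml, serum at 1:10,000.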

human IgG-Fc = experiment: Cellulose-immobilized 13-mer peptide variants incubated with human IgG-Fc, anti-human IgG-AP detection; details: IgG-Fc 1 μg/ml in blocking buffer, 3 h room temperature
Method in brief: as §1

Result for incubation with serum albumin (immunoglobulin binding detection) (serum albumin)	Result for incubation with human plasma (immunoglobulin binding detection) [1]	Result for incubation with human IgG-Fc (immunoglobulin binding detection) (human IgG-Fc)	Substance
0	0	0	04G: cellulose-bound 13-mer variant DCAGHLGELVWCT-(βA)(βA) (DCAGHLGELVWCT[βAla][βAla]; disulfide 2-12 (inferred); also: cellulose-bound)
0	0	0	11L: cellulose-bound 13-mer variant DCAWHLGELVLCT-(βA)(βA)
0	0	+	11K: cellulose-bound 13-mer variant DCAWHLGELVKCT-(βA)(βA)
0	0	+	04L: cellulose-bound 13-mer variant DCALHLGELVWCT-(βA)(βA) (DCALHLGELVWCT[βAla][βAla]; disulfide 2-12 (inferred); also: cellulose-bound)
0	0	0	07Y: cellulose-bound 13-mer variant DCAWHLYELVWCT-(βA)(βA) (DCAWHLYELVWCT-{βAla-βAla-cellulose}; disulfide 2-12 (inferred); not fully specified (N-terminus); printed as DCAWHLYELVWCT-(βA)(βA); reading uncertain)
0	+	+	04S: cellulose-bound 13-mer variant DCASHLGELVWCT-(βA)(βA) (disulfide 2-12 (inferred); not fully specified (N-terminus, C-terminus); printed as DCASHLGELVWCT-(βA)(βA); also: cellulose-bound)
0	0	0	06I: cellulose-bound 13-mer variant DCAWHIGELVWCT-(βA)(βA) (DCAWHIGELVWCT-{βAla-βAla-cellulose}; disulfide 2-12 (inferred); not fully specified (N-terminus); printed as DCAWHIGELVWCT-(βA)(βA); reading uncertain)
0	0	0	11S: cellulose-bound 13-mer variant DCAWHLGELVSCT-(βA)(βA)
0	0	0	02L: cellulose-bound 13-mer variant DLAWHLGELVWCT-(βA)(βA) (DLAWHLGELVWCT[βAla][βAla]; not fully specified; printed as DLAWHLGELVWCT-(βA)(βA); also: cellulose-bound)
0	0	0	11F: cellulose-bound 13-mer variant DCAWHLGELVFCT-(βA)(βA) (DCAWHLGELVFCT-{βAla-βAla-cellulose}; disulfide 2-12 (inferred); reading uncertain; also: printed as DCAWHLGELVFCT-(βA)(βA))
0	0	0	08F: cellulose-bound 13-mer variant DCAWHLGFLVWCT-(βA)(βA) (DCAWHLGFLVWCT-{βAla-βAla-cellulose}; disulfide 2-12 (inferred); not fully specified (N-terminus); printed as DCAWHLGFLVWCT-(βA)(βA); reading uncertain)
0	0	0	07E: cellulose-bound 13-mer variant DCAWHLEELVWCT-(βA)(βA) (DCAWHLEELVWCT-{βAla-βAla-cellulose}; disulfide 2-12 (inferred); not fully specified (N-terminus); printed as DCAWHLEELVWCT-(βA)(βA); reading uncertain)
0	0	0	04D: cellulose-bound 13-mer variant DCADHLGELVWCT-(βA)(βA) (DCADHLGELVWCT-{βAla-βAla-cellulose}; disulfide 2-12 (inferred); reading uncertain; also: printed as DCADHLGELVWCT-(βA)(βA))

More lines, now with the values behind:

Substance	Result for incubation with serum albumin (immunoglobulin binding detection) (serum albumin)	Result for incubation with human plasma (immunoglobulin binding detection) [1]	Result for incubation with human IgG-Fc (immunoglobulin binding detection) (human IgG-Fc)
02W: cellulose-bound 13-mer variant DWAWHLGELVWCT-(βA)(βA) (DWAWHLGELVWCT[βAla][βAla]; not fully specified; printed as DWAWHLGELVWCT-(βA)(βA); also: cellulose-bound)	0	0	0
02V: cellulose-bound 13-mer variant DVAWHLGELVWCT-(βA)(βA) (DVAWHLGELVWCT[βAla][βAla]; not fully specified; printed as DVAWHLGELVWCT-(βA)(βA); also: cellulose-bound)	0	0	0
08M: cellulose-bound 13-mer variant DCAWHLGMLVWCT-(βA)(βA) (DCAWHLGMLVWCT-{βAla-βAla-cellulose}; disulfide 2-12 (inferred); not fully specified (N-terminus); printed as DCAWHLGMLVWCT-(βA)(βA); reading uncertain)	0	+	+
06W: cellulose-bound 13-mer variant DCAWHWGELVWCT-(βA)(βA) (DCAWHWGELVWCT-{βAla-βAla-cellulose}; disulfide 2-12 (inferred); not fully specified (N-terminus); printed as DCAWHWGELVWCT-(βA)(βA); reading uncertain)	0	0	0
02G: cellulose-bound 13-mer variant DGAWHLGELVWCT-(βA)(βA) (DGAWHLGELVWCT[βAla][βAla]; not fully specified; printed as DGAWHLGELVWCT-(βA)(βA); also: cellulose-bound)	0	0	0
09V: cellulose-bound 13-mer variant DCAWHLGEVVWCT-(βA)(βA) (DCAWHLGEVVWCT-{βAla-βAla-cellulose}; disulfide 2-12 (inferred); reading uncertain; also: printed as DCAWHLGEVVWCT-(βA)(βA))	0	0	0
12A: cellulose-bound 13-mer variant DCAWHLGELVWAT-(βA)(βA) (DCAWHLGELVWAT-{βAla-βAla-cellulose}; not fully specified; printed as DCAWHLGELVWAT-(βA)(βA); reading uncertain)	0	0	0
06S: cellulose-bound 13-mer variant DCAWHSGELVWCT-(βA)(βA) (DCAWHSGELVWCT-{βAla-βAla-cellulose}; disulfide 2-12 (inferred); not fully specified (N-terminus); printed as DCAWHSGELVWCT-(βA)(βA); reading uncertain)	0	0	+
05I: cellulose-bound 13-mer variant DCAWILGELVWCT-(βA)(βA) (disulfide 2-12 (inferred); not fully specified (N-terminus, C-terminus); printed as DCAWILGELVWCT-(βA)(βA); also: cellulose-bound)	0	0	0
04N: cellulose-bound 13-mer variant DCANHLGELVWCT-(βA)(βA) (DCANHLGELVWCT[βAla][βAla]; disulfide 2-12 (inferred); also: cellulose-bound)	0	0	+

Source: patent publication US7205382B2, “Peptides, the production and use thereof for binding immunoglobulins” (Fresenius Medical Care Affina GmbH, priority 2000, dated 2007)
